Reference: US20150202167A1, “Trans-Clomiphene Formulations and Uses Thereof” (REPROS THERAPEUTICS INC., priority 2012, published 2015)

How the values were obtained:
[1] = noted by Ernst et al.; cited from earlier work
[2] = cited from earlier work
[3] = Particle size analysis by laser diffraction (Malvern Mastersizer 2000); format: physicochemical; conditions: for d10: 10% of the total volume of particles is less than the indicated size; for d10 / d50 / d90: final method conditions, 0.1% (w/v) Span 85 in hexane; for d50: 50% of the total volume of particles is less than the indicated size; for d90: 90% of the total volume of particles is less than the indicated size
Source text: Trans-clomiphene is characterized for size using an instrument adapted to measure equivalent spherical volume diameter, such as a Malvern Mastersizer 2000 laser diffraction particle size analyzer or equivalent instrument. After being characterized for size, the trans-clomiphene is then milled, if necessary, preferably using a pin mill under suitable conditions of mill rotation rate and feed rate, to bring the particle size value within the above mentioned limits according to the invention. The efficiency of milling is checked by sampling using a Malvern Mastersizer 2000 laser diffraction particle size analyzer and the final particle size is checked in a similar manner.
The values found from characterizing a large number of “unknown” particles can be plotted frequency vs. diameter. This gives a characteristic curve representing size distribution of the sample, i.e., cumulative percentage under size distribution curve. Values from this can be read off directly or plotted on log-probability paper to give an appropriate straight line. The mean equivalent spherical volume diameter is the 50% undersize value. The mean equivalent spherical volume diameter found is thus a statistical representation of a theoretical particle having the same property as the “unknown” particle. The following is a description by way of example.
Repeated particle size measurements of the sample dispersed in 0.1% (w/v) Span™ 85 in hexane were collected while recirculating over the course of approximately five minutes with a pump speed of 1000 rpm. Particle size (d10, d50, d90) was plotted versus the recirculation time. Values for both the d10 and d50 fell within a narrow range for the duration. The decrease in the d90 primarily occurred over the first 90 seconds with a gradual decrease thereafter.
Repeated particle size measurements of the sample were collected while recirculating for 90 seconds with increasing pump speeds to examine the effect of pump speed on particle size. […] A pump speed of 1500 rpm was selected to optimize both dispersion of agglomerates and suspension of the larger particles and to minimize attrition of the blades and needles.
One particle size measurement of each sample of trans-clomiphene citrate was collected using the final method conditions. Three of the lots shared a similar bimodal particle size distribution whereas one lot contained a third mode consisting of much larger particles. The remaining lot of was bimodal but reflected much larger particle sizes than the distributions of the earlier three lots with bimodal distributions.
Particle size data was acquired using a Malvern Instruments MS2000 equipped with a Hydro 2000 μP dispersion unit. Data was collected and analyzed using Mastersizer 2000 v. 5.60 software using volume based measurements. NIST-traceable glass beads were used as the reference standard.
Particle size of trans-clomiphene citrate using the final method conditions is reproduced below: […]

[4] = Evaluation of dispersants for trans-clomiphene citrate; format: physicochemical; conditions: 0.01% (w/v) Tween 20 (polysorbate 20) in water
Experimental: 0.1% (w/v) Lecithin in Isopar G™, 0.1% (w/v) Span™ 85 (sorbitane trioleate) in hexane, and 0.01% (w/v) Tween® 20 (polysorbate 20) in water were evaluated as dispersants for trans-clomiphene citrate. Samples suspended easily in each of the two organic dispersants and settled out of suspension slowly. […] Samples dispersed in the Isopar G™-based and hexane-based dispersants were examined microscopically. […] 0.1% (w/v) Span™ 85 in hexane was selected for further analysis.

CCN(CC)CCOc1ccc(/C(=C(/Cl)c2ccccc2)c2ccccc2)cc1 (single isomer, unassigned) [trans-isomer, trans-2-(p-(2-chloro-1,2-diphenylvinyl)phenoxy)triethylamine]
estrogenic / antiestrogenic character [1]: antiestrogenic

CCN(CC)CCOc1ccc(C(=C(Cl)c2ccccc2)c2ccccc2)cc1 [clomiphene]
FSH, LH ([2]; both young and old men after treatment with clomiphene): increases | free and total testosterone ([2]; men, young men showing significant increases): increases

CCN(CC)CCOc1ccc(/C(=C(/Cl)c2ccccc2)c2ccccc2)cc1.O=C(O)CC(O)(CC(=O)O)C(=O)O [compound 16204]
d10 [3]: 8.058 μm | d50 [3]: 106.743 μm | d90 [3]: 318.464 μm

CCN(CC)CCOc1ccc(/C(=C(/Cl)c2ccccc2)c2ccccc2)cc1.O=C(O)CC(O)(CC(=O)O)C(=O)O [compound 24712]
d10 [3]: 4.038 μm | d50 [3]: 13.902 μm | d90 [3]: 218.573 μm

CCN(CC)CCOc1ccc(/C(=C(/Cl)c2ccccc2)c2ccccc2)cc1.O=C(O)CC(O)(CC(=O)O)C(=O)O [compound 24867]
d10 [3]: 4.794 μm | d50 [3]: 13.418 μm | d90 [3]: 70.289 μm

CCN(CC)CCOc1ccc(/C(=C(/Cl)c2ccccc2)c2ccccc2)cc1.O=C(O)CC(O)(CC(=O)O)C(=O)O [compound 31249]
d10 [3]: 4.850 μm | d50 [3]: 13.455 μm | d90 [3]: 76.891 μm

CCN(CC)CCOc1ccc(/C(=C(/Cl)c2ccccc2)c2ccccc2)cc1.O=C(O)CC(O)(CC(=O)O)C(=O)O [compound 32305]
d10 [3]: 3.373 μm | d50 [3]: 9.664 μm | d90 [3]: 44.995 μm | Vol under % ([3]; size 0.010 μm): 0.00% | Vol under % ([3]; size 0.011 μm): 0.00% | Vol under % ([3]; size 0.013 μm): 0.00% | Vol under % ([3]; size 0.015 μm): 0.00% | Vol under % ([3]; size 0.017 μm): 0.00% | Vol under % ([3]; size 0.020 μm): 0.00% | Vol under % ([3]; size 0.023 μm): 0.00% | Vol under % ([3]; size 0.026 μm): 0.00% | Vol under % ([3]; size 0.030 μm): 0.00% | Vol under % ([3]; size 0.035 μm): 0.00% | Vol under % ([3]; size 0.040 μm): 0.00% | Vol under % ([3]; size 0.046 μm): 0.00% | Vol under % ([3]; size 0.052 μm): 0.00% | Vol under % ([3]; size 0.060 μm): 0.00% | Vol under % ([3]; size 0.069 μm): 0.00% | Vol under % ([3]; size 0.079 μm): 0.00% | Vol under % ([3]; size 0.091 μm): 0.00% | Vol under % ([3]; size 0.105 μm): 0.00% | Vol under % ([3]; size 0.120 μm): 0.00% | Vol under % ([3]; size 0.138 μm): 0.00% | Vol under % ([3]; size 0.158 μm): 0.00% | Vol under % ([3]; size 0.182 μm): 0.00% | Vol under % ([3]; size 0.209 μm): 0.00% | Vol under % ([3]; size 0.240 μm): 0.00% | Vol under % ([3]; size 0.275 μm): 0.00% | Vol under % ([3]; size 0.316 μm): 0.00% | Vol under % ([3]; size 0.363 μm): 0.00% | Vol under % ([3]; size 0.417 μm): 0.00% | Vol under % ([3]; size 0.479 μm): 0.00% | Vol under % ([3]; size 0.550 μm): 0.00% | Vol under % ([3]; size 0.631 μm): 0.00% | Vol under % ([3]; size 0.724 μm): 0.00% | Vol under % ([3]; size 0.832 μm): 0.00% | Vol under % ([3]; size 0.965 μm): 0.02% | Vol under % ([3]; size 1.096 μm): 0.10% | Vol under % ([3]; size 1.259 μm): 0.28% | Vol under % ([3]; size 1.445 μm): 0.60% | Vol under % ([3]; size 1.660 μm): 1.12% | Vol under % ([3]; size 1.905 μm): 1.93% | Vol under % ([3]; size 2.188 μm): 3.10% | Vol under % ([3]; size 2.512 μm): 4.72% | Vol under % ([3]; size 2.884 μm): 6.86% | Vol under % ([3]; size 3.311 μm): 9.59% | Vol under % ([3]; size 3.802 μm): 12.94% | Vol under % ([3]; size 4.385 μm): 16.94% | Vol under % ([3]; size 5.012 μm): 21.58% | Vol under % ([3]; size 5.754 μm): 26.82% | Vol under % ([3]; size 6.607 μm): 32.58% | Vol under % ([3]; size 7.586 μm): 38.74% | Vol under % ([3]; size 8.710 μm): 45.14% | Vol under % ([3]; size 10.00 μm): 51.59% | Vol under % ([3]; size 11.482 μm): 57.87% | Vol under % ([3]; size 13.183 μm): 63.80% | Vol under % ([3]; size 15.136 μm): 69.20% | Vol under % ([3]; size 17.378 μm): 73.95% | Vol under % ([3]; size 19.953 μm): 77.98% | Vol under % ([3]; size 22.909 μm): 81.29% | Vol under % ([3]; size 26.303 μm): 83.92% | Vol under % ([3]; size 30.200 μm): 85.99% | Vol under % ([3]; size 34.674 μm): 87.62% | Vol under % ([3]; size 39.811 μm): 88.95% | Vol under % ([3]; size 45.709 μm): 90.13% | Vol under % ([3]; size 52.481 μm): 91.28% | Vol under % ([3]; size 60.256 μm): 92.50% | Vol under % ([3]; size 69.183 μm): 93.84% | Vol under % ([3]; size 79.433 μm): 95.28% | Vol under % ([3]; size 91.201 μm): 96.72% | Vol under % ([3]; size 104.713 μm): 98.02% | Vol under % ([3]; size 120.226 μm): 99.04% | Vol under % ([3]; size 138.038 μm): 99.72% | Vol under % ([3]; size 158.489 μm): 99.97% | Vol under % ([3]; size 181.970 μm): 100.00% | Vol under % ([3]; size 208.930 μm): 100.00% | Vol under % ([3]; size 239.883 μm): 100.00% | Vol under % ([3]; size 275.423 μm): 100.00% | Vol under % ([3]; size 316.228 μm): 100.00% | Vol under % ([3]; size 363.078 μm): 100.00% | Vol under % ([3]; size 416.869 μm): 100.00% | Vol under % ([3]; size 478.630 μm): 100.00% | Vol under % ([3]; size 549.541 μm): 100.00% | Vol under % ([3]; size 630.957 μm): 100.00% | Vol under % ([3]; size 724.438 μm): 100.00% | Vol under % ([3]; size 831.764 μm): 100.00% | Vol under % ([3]; size 954.993 μm): 100.00% | Vol under % ([3]; size 1096.478 μm): 100.00%

trans-clomiphene citrate
Dissolution of the sample suspended in aqueous dispersant [4]: Partial dissolution
